Measurements from patent US9932630B2, “Method and system for decontaminating materials” (RASIRC, Inc., priority 2014, dated 2018).

Experiments:
[1] = tested on: bacterial samples; conditions: visible mist or fog present, droplets condensed onto the sample
[2] = tested on: bovine genomic DNA
From the text: (§1) FIG. 4 schematic illustrates the apparatus used in this experiment. Equipment included: a purified clean dry air (CDA) gas supply; a pressurized deionized (DI) water supply; a pressure regulator with gauge, a Filterite MPTE-010-1/4CS 0.01 micron gas filter; 3 mass flow controllers (MFCs); an MFC control box; a Stable Gaseous Delivery (SGD) System (i.e., “Concentrator” in the diagram) and a relative humidity system (RHS) (RASIRC, San Diego, Calif.). Membranes using a fluorinated ion-exchange polymer prepared as an ammonium salt were utilized.
Operation of the decontamination apparatus can be understood with reference to FIG. 4. The CDA gas pressure was maintained at 25 psig with the pressure regulator. A 0.01 micron filter removed particulates from the gas stream. The MFCs controlled the flow of the carrier gas streams and the dilution gas stream. […]
A PCR plate to be used for quantifying amplifiable DNA was prepared with three replicates at each target input level (i.e., ranging from 0 ng to 1,000 ng). In each instance, measured aliquots of an aqueous solution of bovine genomic DNA were added to individual wells of the plate, and then dried. […] Amplification reactions were carried out using procedures familiar to those of ordinary skill in the art, and the appearance of fluorescent signals monitored as a function of time in a real-time format.

[3] = tested on: E. coli; conditions: 25° C.
From the text: as §1
Operation of the decontamination apparatus can be understood with reference to FIG. 4. The CDA gas pressure was maintained at 25 psig with the pressure regulator. A 0.01 micron filter removed particulates from the gas stream. The MFCs controlled the flow of the carrier gas streams and the dilution gas stream. The RHS was used to add water gas to the gas stream. […] The water temperature was used to control the output of the humidifier. The valves (V-1, V-2, and V-3) were used to send either the dry CDA gas stream, the RHS gas stream, and/or SGD gas stream through the furnace or out to vent. TC-1 will be used to measure the temperature of the dry CDA gas stream. TC-2 will be used to measure gas temperature downstream of the RHS. TC-3 and TC-4 were used to measure the gas temperature downstream of the SGD. […]

For OO [Hydrogen Peroxide Gas, hydrogen peroxide], the “reduction of the number of viable organisms” value [1] was “did not significantly reduce”, the “reduction of amplifiable DNA” value ([2]; sample containing the greatest amount of starting material) was “about 4 logs” and the “amplifiable DNA after treatment” value ([2]; sample containing the lowest amount of starting material) was “completely undetectable”. The “Growth on tryptic soy agar plates after H202 treatment” value ([3]; E. coli 1.7×10^7 cfu per spot, gas-phase H2O2 at 505 ppm and H2O at 2122 ppm for 60 minutes) was “No Growth” and the “number of viable bacteria after exposure” value ([3]; E. coli, gas-phase H2O2 505 ppm, 60 minutes) was “undetectable level”.
